Laboratory results taken from patent EP0216028A2, “Use of anthranilic-acid derivatives as anthelmintic medicaments” (HOECHST AKTIENGESELLSCHAFT, priority 1985, dated 1987).
Read-outs that look alike come from different tables or passages of the source.

Assays:
[1] = tested on: Leberegel (Fasciola hepatica); assay: Chemotherapeutic test in sheep infected with liver fluke (egg count reduction / worm burden); assay type: in vivo; conditions: Wirtstier: Schaf, p.o.; for minimal effective dose: Fasciola hepatica, po, read-out: Dosis (>90% Reduktion der Wurmbürde); for Chemotherapeut. Index: quotient of Dosis tolerata maxima and Dosis curativa minima
Excerpt: (§1) Zur Feststellung der anthelminthischen Wirkung der Verbindungen der Formel I wurden chemotherapeutische Untersuchungen an ca. 25-30 kg schweren Schaflämmern ausgeführt, die entweder mit Metazerkarien von Fasciola hepatica oder mit Larven von Magen-Darm-Strongyliden, vornehmlich Haemonchus contortus und Trichostongylus colubriformis, oral infiziert worden waren. Nach Ablauf der Präpatenzperiode (Zeit zwischen Infektion und Geschlechtsreife der Parasiten mit beginnender Ausscheidung von Eiern oder Larven) wurde der Parasitenbefall durch Kotuntersuchungen gesichert. […] Unmittelbar danach wurde die Behandlung der Schafe (im allgemeinen 3 - 4 Tiere pro Wirkstoff, mindestens aber 2) vorgenommen. Den Tieren wurde oral oder parenteral eine Suspension von unterschiedlicher Wirkstoffmenge in jeweils 10 ml einer 1%igen Carboxymethylcellulose-Suspension appliziert. Jeweils am 7., 14. und 28. Tag nach der Behandlung wurde wiederum nach den vorstehend angegebenen Verfahren die Eizahl pro Gramm Kot ermittelt und ihre prozentuale Abnahme im Vergleich zum Ausgangswert vor der Behandlung errechnet. Mit einigen Verbindungen wurden außerdem beim Fasciola-Befall noch eine zusätzliche Prüftechnik angewandt: Nach Abschluß der Präpatenzperiode wurde bei Fasciola-positiven Schafen ein künstlicher Gallengang geschaffen, der am Ausgang der Gallenblase ein Sieb enthielt, so daß die nach der Behandlung abgetöteten Leberegel in der Gallenblase aufgefangen werden konnten. Vier bis sieben Tage nach der Behandlung wurden die so operierten und dann behandelten Schafe getötet, die abgetöteten Leberegel in der Gallenblase sowie noch eventuell in der Leber vorhandene lebende Leberegel gezählt und von der gesamten Wurmbürde der Prozentsatz der abgetöteten Parasiten berechnet.
(§2) Der chemotherapeutische Index gibt den Quotienten aus Do- sis tolerata maxima und Dosis curativa minima an.

[2] = tested on: Magen-Darm-Würmer(Ostertagia, Haemonchur, Trichostrongylus, Cooperia, jeweils verschiedene Spezies); assay: Chemotherapeutic test in sheep infected with gastrointestinal worms (egg count reduction / worm burden); assay type: in vivo; conditions: Tabelle 2, Wirtstier: Schaf; for Chemotherapeut. Index: quotient of Dosis tolerata maxima and Dosis curativa minima; for minimal effective dose: Trichostrongylus, read-out: Dosis (>90% Reduktion der Wurmbürde)
Excerpt: as §1, §2

[3] = Tabelle 1, minimum curative dose
[4] = Tabelle 3 (comparison of isomers)

Row | Compound | minimal effective dose [1, 3] | Chemotherapeut. Index ([1]; Tabelle 1) | minimal effective dose [1, 4] | Chemotherapeut. Index [1, 4] | other results
1 | O=C(Nc1ccc(Cl)cc1Cl)c1cc(Cl)ccc1NS(=O)(=O)c1ccc(Cl)cc1 [Verbindung 2, 5-Chlor-2-[(4-chlor-phenylsulfonyl)-amino]-benzoesäure-(2,4-dichlor-anilid)] | 7.5 mg/kg | 8 | – | – | –
2 | CCCCCCCCCCCCNC(=O)c1cc(Cl)cc(Cl)c1NS(=O)(=O)c1ccc(Cl)cc1 [Verbindung 16] | – | – | – | – | Chemotherapeut. Index ([2]; p.o.): 10; minimal effective dose ([2]; po, p.o.): 5 mg/kg
3 | O=C(Nc1ccc(F)cc1)c1cc(Cl)cc(Cl)c1NS(=O)(=O)c1ccc(Cl)cc1 [Verbindung 14, 3,5-Dichlor-2-[(4-chlor-phenylsulfonyl)-amino]-benzoesäure-(4-fluor-anilid)] | 7.5 mg/kg | 5 | – | – | –
4 | CN(C(=O)c1cc(Cl)ccc1NS(=O)(=O)c1ccc(Cl)cc1)c1ccc(Cl)cc1 [Verbindung 6] | – | – | – | – | Chemotherapeut. Index ([2]; p.o.): 5; minimal effective dose ([2]; po, p.o.): 10 mg/kg
5 | O=C(Nc1ccc(C(F)(F)F)cc1)c1cc(Cl)ccc1NS(=O)(=O)c1ccc(Cl)c(Cl)c1 [Verbindung 34, 5-Chlor-2-[(3,4-dichlor-phenylsulfonyl)-amino]-benzoesäure-(4-trifluormethyl-anilid)] | 2.5 mg/kg | 20 | – | – | –
6 | O=C(Nc1ccc(Cl)cc1)c1cc(Cl)c(Cl)cc1NS(=O)(=O)c1ccc(Cl)cc1 [Verbindung 12, 4,5-Dichlor-2-[(4-chlor-phenylsulfonyl)-amino]-benzoesäure-(4-chlor-anilid)] | 5 mg/kg | 10 | – | – | –
7 | O=C(Nc1ccc(Cl)cc1)c1ccc(NS(=O)(=O)c2ccc(Cl)cc2)cc1Cl [V2, reference compound] | – | – | 20 mg/kg | 3 | –
8 | O=C(Nc1ccc(Cl)cc1)c1ccc(NS(=O)(=O)c2ccc(Cl)cc2)cc1Br [V8, reference compound] | – | – | 30 mg/kg | 2 | –
9 | O=C(Nc1ccc(Cl)cc1)c1ccc(Br)cc1NS(=O)(=O)c1ccc(Cl)cc1 [V9, 4-Brom-2-[(4-chlor-phenylsulfonyl)-amino]-benzoesäure-(4-chlor-anilid), reference compound] | – | – | 20 mg/kg | 3 | –
10 | CN(c1ccc(Cl)cc1C(=O)Nc1ccc(Cl)cc1)S(=O)(=O)c1ccc(Cl)c(Cl)c1 [Verbindung 30, 5-Chlor-2-[(3,4-dichlor-phenylsulfonyl)-methylamino]-benzoesäure-(4-chlor-anilid)] | 5 mg/kg | 10 | – | – | –
11 | CCS(=O)(=O)c1ccc(NS(=O)(=O)c2ccc(Cl)c(Cl)c2)c(C(=O)Nc2ccc(Cl)cc2)c1 [Verbindung 40] | 5 mg/kg | 10 | – | – | –
12 | O=C(Nc1ccc(Cl)cc1)c1cc(Cl)ccc1NS(=O)(=O)c1ccc(F)cc1 [Verbindung 22, 5-Chlor-2-[(4-fluor-phenylsulfonyl)-amino]-benzoesäure-(4-chloranilid)] | – | – | – | – | Chemotherapeut. Index ([2]; p.o.): 5; minimal effective dose ([2]; po, p.o.): 10 mg/kg
13 | O=C(Nc1ccc(Cl)cc1)c1ccc(Cl)c(NS(=O)(=O)c2ccc(Cl)cc2)c1 [V4, 4-Chlor-3-[(4-Chlorphenylsulfonyl)-amino]-benzoesäure-(4-chlor-anilid), reference compound] | – | – | 15 mg/kg | 4 | –
14 | O=C(Nc1ccc(Cl)cc1)c1cc(Cl)ccc1NS(=O)(=O)c1ccc(Cl)c(Cl)c1 [Verbindung 26, 5-Chlor-2-[(3,4-dichlor-phenylsulfonyl)-amino]-benzoesäure-(4-chlor-anilid)] | 1 mg/kg | über 25 | – | über 25 | Dosis (>90% Reduktion der Wurmbürde) [1, 4]: 1 mg/kg Körpergewicht
15 | CCCCCCCCCCCCN(C)C(=O)c1cc(Cl)ccc1NS(=O)(=O)c1ccc(Cl)cc1 [Verbindung 19, 5-Chlor-2-[(4-chlor-phenylsulfonyl)-amino]-benzoesäure-(N-methyl-dodecylamid)] | 7.5 mg/kg | 5 | – | – | –
16 | O=C(Nc1ccc(Cl)c(Cl)c1)c1cc(Cl)ccc1NS(=O)(=O)c1ccc(Cl)cc1 [Verbindung 3, 5-Chlor-2-t(4-chlor-phenylsulfonyl)-aminoJ-benzoesäure-(3,4-dichloranilid)] | 5 mg/kg | 10 | 5 mg/kg | 10 | –
17 | O=C(Nc1ccc(Br)cc1)c1cc(Cl)ccc1NS(=O)(=O)c1ccc(Br)cc1 [Verbindung 21] | – | – | – | – | Chemotherapeut. Index ([2]; s.c.): über 6; minimal effective dose ([2]; sc, s.c.): 5 mg/kg

Row | Compound | minimal effective dose [1, 3] | Chemotherapeut. Index ([1]; Tabelle 1) | minimal effective dose [1, 4] | Chemotherapeut. Index [1, 4] | other results
18 | O=C(Nc1ccc(Cl)cc1)c1cc(Cl)ccc1NS(=O)(=O)c1ccc(Cl)cc1 [Verbindung 1] | 1.5 mg/kg | über 25 | 1.5 mg/kg | über 25 | –
19 | CCCCCCCCNC(=O)c1cc(Cl)ccc1NS(=O)(=O)c1ccc(Cl)c(Cl)c1 [Verbindung 27, 5-Chlor-2-[(3,4-dichlor-phenylsulfonyl)-amino]-benzoesäure-octylamid] | 7.5 mg/kg | 8 | – | – | –
20 | O=C(Nc1ccc(F)cc1)c1cc(NS(=O)(=O)c2ccc(Cl)cc2)ccc1Cl [V7, 2-Chlor-5-[(4-chlor-phenylsulfonyl)-amino]-benzoesäure-(4-fluor-anilid), reference compound] | – | – | 30 mg/kg | 2 | –
21 | O=C(Nc1ccc(Cl)c(Cl)c1)c1ccc(Cl)cc1NS(=O)(=O)c1ccc(Cl)cc1 [V6, 4-Chlor-2-[(4-chlor-phenylsulfonyl)-amino]-benzoesäure-(3,4-dichlor-anilid), reference compound] | – | – | 30 mg/kg | 2 | –
22 | O=C(Nc1ccc(Cl)c(Cl)c1)c1ccc(NS(=O)(=O)c2ccc(Cl)cc2)cc1Cl [V10, reference compound] | – | – | 10 mg/kg | 5 | –
23 | O=C(Nc1ccc(Cl)cc1)c1cc(Cl)ccc1NS(=O)(=O)c1ccc(Cl)cc1Cl [Verbindung 25, 5-Chlor-2-[(2,4-dichlor-phenylsulfonyl)-amino]-benzoesäure-(4-chloranilid)] | 7.5 mg/kg | 6 | – | – | –
24 | CCCCCCCCCCCCCCCCCCNC(=O)c1cc(Cl)ccc1NS(=O)(=O)c1ccc(Cl)c(Cl)c1 [Verbindung 32, 5-Chlor-2-[(3,4-dichlor-phenyl-sulfonyl)-amino]-benzoesäure-octa-decylamid] | 5 mg/kg | 10 | – | – | –
25 | O=C(Nc1ccc(Cl)cc1)c1cc(NS(=O)(=O)c2ccc(Cl)cc2)ccc1Cl [V5, reference compound] | – | – | 30 mg/kg | 2 | –
26 | O=C(Nc1ccc(Cl)cc1)c1ccc(Cl)cc1NS(=O)(=O)c1ccc(Cl)cc1 [V1, 4-Chlor-2-[(4-chlor-phenylsulfonyl)-amino]-benzoesäure-(4-chloranilid), reference compound] | – | – | 30 mg/kg | 2 | –
27 | CCN(C(=O)c1cc(Cl)ccc1NS(=O)(=O)c1ccc(Cl)c(Cl)c1)c1ccc(Cl)cc1 [Verbindung 29] | 1.5 mg/kg | über 25 | – | – | –
28 | O=C(Nc1ccc(Cl)cc1)c1ccc(NS(=O)(=O)c2ccc(Cl)cc2)c(Cl)c1 [V3, reference compound] | – | – | 30 mg/kg | 2 | –
29 | O=C(Nc1ccc(Br)cc1)c1cc(Cl)ccc1NS(=O)(=O)c1ccc(Cl)cc1 [Verbindung 5, 5-Chlor[(4-chlor-phenylsulfonyl)-amino]-benzoesäure-(4-brom-anilid)] | 5 mg/kg | 10 | – | – | –
30 | O=C(Nc1ccc(Cl)cc1)c1cc(Br)ccc1NS(=O)(=O)c1ccc(Cl)cc1 [Verbindung 9, 5-Brom-2-[(4-chlor-phenylsulfonyl)-amino]-benzoesäure-(4-chlor-anilid)] | 5 mg/kg | 10 | 2.5 mg/kg | 20 | –
31 | O=C(Nc1ccc(F)cc1)c1cc(Cl)ccc1NS(=O)(=O)c1ccc(Cl)cc1 [Verbindung 4] | 2.5 mg/kg | 20 | – | 20 | Dosis (>90% Reduktion der Wurmbürde) [1, 4]: 2,5 mg/kg Körpergewicht
32 | CCCCCCCCCCCCN(C)C(=O)c1cc(Cl)ccc1NS(=O)(=O)c1ccc(Cl)c(Cl)c1 [Verbindung 33, 5-Chlor-2-[(3,4-dichlor-phenylsulfonyl)-amino]-benzoesäure-(N-methyl-dodecylamid)] | – | – | – | – | Chemotherapeut. Index ([2]; s.c.): über 6; minimal effective dose ([2]; sc, s.c.): 5 mg/kg
33 | CCCCCCCCCCCCNC(=O)c1cc(Cl)ccc1NS(=O)(=O)c1ccc(Cl)cc1 [Verbindung 17, 5-Chlor-2-[(4-chlor-phenylsulfonyl)-amino]-benzoesäure-dodecylamid] | 2.5 mg/kg | 20 | – | – | –
